Results on three molecules are retold here after US9084748B2, “Biopolymer produced by fermenting the extract of soybean with folic acid and a composition containing thereof” (Damy Chemical Co., Ltd., priority 2007, dated 2015).

Test [1] relates to human dermal fibroblast neonatal (HDF-N). Description: Cell growth of fibroblast primary culture, neutral red (NR) assay. The format is cell-based. The settings on record: fibroblasts incubated 24 hours. The source says:
It was identified through the current experiment that the folyl EFS promotes cell growth and collagen biosynthesis. A cell line used in the current experiment was a primary culture of a fibroblast (human dermal fibroblast neonatal; (HDF-N; Gibco, Cooper, M. L. et al, Biomaterials 12:243, 1991), and a culture media used was a fibroblast neonatal growth medium (FGM, KDR Co.). […] Shao-Zeng Z. et al., Cell Biology and Toxicology, 6:2, 1990) (see FIG. 7).

The test system of test [2] is human dermal fibroblast neonatal. Description: Collagen biosynthesis promotion, human collagen type-1 ELISA. In kind it is cell-based. The method, then: The folyl EFS and the human dermal fibroblast neonatal were incubated for 3 days, and the supernatant was isolated and collagen was quantified using a human collagen type-1 ELISA kit (Cosmo Bio Co.). A sample used in the current experiment was a 1% solution containing Composition 2 used in Preparation Example 2, and 4% of 1,3-butyleneglycol was added to the sample and preserved. Also, to compare with the effect of the folyl EFS, a folic acid solution in which the concentration of the folic acid was the same as that in the folyl EFS was prepared. In addition, 10 ng/ml of transforming growth factor-beta (TGF-β; Sigma), which is known as a promotion factor for collagen biosynthesis, was compared with the folyl EFS.
The collagen biosynthesis promotion effect of the folyl EFS is shown in the bar chart of FIG. 8. A folyl EFS produced as a cosmetic source material was a 1% liquid product. In FIG. 8, the concentration (%) of the x-axis denotes a ratio of the volume of the folyl EFS to the volume of the entire culture solution (v/v, %). The results are represented as the ratio of the value of collagen of each group with respect to the average value of collagen in a group not treated with anything when the average value of collagen in the group not treated with anything was set at 100%. […]

For test [3], the system named is mast cells (ATCC TIB-64, P815). Description: Quantifying histamine secreted by C48/80-stimulated mast cells (ELISA). In kind it is cell-based. On the procedure: This experiment was performed to identify how much the folyl EFS reduces the amount of histamine secreted when mast cells are treated with a stimulant. […] FIG. 2 is a bar chart showing the results of the experiment. […] As described above, it can be seen that the folyl EFS has an excellent anti-histamine (anti-allergic) effect.

For a further test, the system named is mice (BALB/C, male). Description: Anti-allergic (anti-anaphylaxis) test, C48/80 intraperitoneally injected. The format is in vivo.

Description for mice (BALB/C, male): C48/80 is a material that stimulates immune organs and induces acute anaphylaxis within 30 minutes when intraperperitoneally injected. In the current experiment, the number of test animals which died within a predetermined time period (24 hours) after the intraperperitoneal injection of the C48/80 was counted. In the current experiment, 10 mice (BALB/C, male) were used per group, and each group was tested for three times and the average value of the three experimental results was represented as a death ratio (%).

With `Nc1nc2ncc(CNc3ccc(C(=O)N[C@@H](CCC(=O)O)C(=O)O)cc3)nc2c(=O)[nH]1` [folic acid], in test [1], the “cell growth rate when concentration gradually increased” value is reported as “the cell growth rate was not increased accordingly”. Besides, the “collagen biosynthesis promotion effect” value in test [2] (folic acid solution at same folic acid concentration as in folyl EFS) was “did not occur within an error range”.
For `O=C(O)c1cc(=O)c2c(OCC(O)COc3cccc4oc(C(=O)O)cc(=O)c34)cccc2o1` [sodium cromolyn], the “ED50 value (histamine secretion inhibition)” value in test [3] (C48/80-stimulated mast cells, ELISA) is on record as 0.5%. Besides, the “histamine secretion inhibition rate” value in test [3] (about 0.5% of the sodium cromolyn) is 50%. The “inhibition of development of anaphylaxis” value in the test with mice (BALB/C, male) (1% sodium cromolyn) is listed as “up to 80%”. The “inhibition of sequela of anaphylaxis” value in the test on mice (BALB/C, male) (result in words) is “did not inhibit sequela of anaphylaxis”.
As to TGF-β, the “maximum promotion rate of collagen biosynthesis” value in test [2] (at 0.63% (v/v, %), 3 days, relative to untreated group set at 100%) is 22%.
